Test results published in PubChem BioAssay AID248 (DTP/NCI, 2004).
Values joined by “and” are separate entries in the source; they are usually repeats but may differ in a detail not shown here. Equal entries are not always repeated. Toxic doses and inconclusive results are not listed.

System: L1210 leukemia ip in BDF1 mice, survival T/C
Experiment: NCI In Vivo Anticancer Drug Screen. Data for tumor model L1210 Leukemia (intraperitoneal) in B6D2F1 (BDF1) mice
Details: endpoint: mean survival time, higher = longer survival
Procedure, shortened: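 Value reflects the ratio of survival in compound-treated mice to survival in vehicle-treated controls, with both groups carrying the same transplanted tumor.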

[1] = dose: 6.25 mg/kg/injection, schedule: Q04DX002 (ip), vehicle: saline with Tween-80
[2] = dose: 12.5 mg/kg/injection, schedule: Q04DX002 (ip), vehicle: saline with Tween-80
[3] = dose: 25.0 mg/kg/injection, schedule: Q04DX002 (ip), vehicle: saline with Tween-80
[4] = dose: 100.0 mg/kg/injection, schedule: Q01DX009 (ip), vehicle: saline with Tween-80
[5] = dose: 100.0 mg/kg/injection, schedule: Q04DX003 (ip), vehicle: saline with Tween-80
[6] = dose: 200.0 mg/kg/injection, schedule: Q04DX003 (ip), vehicle: saline with Tween-80
[7] = dose: 400.0 mg/kg/injection, schedule: Q04DX003 (ip), vehicle: saline with Tween-80
[8] = dose: 100.0 mg/kg/injection, schedule: Q01DX009 (ip), vehicle: Klucel (hydroxypropylcellulose) (HPC)
[9] = dose: 200.0 mg/kg/injection, schedule: Q01DX009 (ip), vehicle: Klucel (hydroxypropylcellulose) (HPC)
[10] = dose: 400.0 mg/kg/injection, schedule: Q01DX009 (ip), vehicle: Klucel (hydroxypropylcellulose) (HPC)
[11] = dose: 100.0 mg/kg/injection, schedule: Q04DX002 (ip), vehicle: saline
[12] = dose: 200.0 mg/kg/injection, schedule: Q04DX002 (ip), vehicle: saline
[13] = dose: 100.0 mg/kg/injection, schedule: Q04DX003 (ip), vehicle: Klucel (hydroxypropylcellulose) (HPC)
[14] = dose: 200.0 mg/kg/injection, schedule: Q04DX003 (ip), vehicle: Klucel (hydroxypropylcellulose) (HPC)
[15] = dose: 400.0 mg/kg/injection, schedule: Q04DX003 (ip), vehicle: Klucel (hydroxypropylcellulose) (HPC)
[16] = dose: 100.0 mg/kg/injection, schedule: Q01DX001 (ip), vehicle: saline

In the case of `NC(CSS(=O)(=O)O)=NC1CCCCC1`, the T/C [1] is reported as 120 % of control, the T/C [2] is reported as 113 % of control and the T/C [3] is reported as 98 % of control.
For `Cc1no[n+]([O-])c1-c1nc(SCC(=O)NN)n[nH]1`, the T/C (dose: 25.0 mg/kg/injection, schedule: Q04DX002 (ip), vehicle: Klucel (hydroxypropylcellulose) (HPC)) was 91 % of control, the T/C (dose: 50.0 mg/kg/injection, schedule: Q04DX002 (ip), vehicle: Klucel (hydroxypropylcellulose) (HPC)) was 95 % of control and the T/C (dose: 100.0 mg/kg/injection, schedule: Q04DX002 (ip), vehicle: Klucel (hydroxypropylcellulose) (HPC)) was 102 % of control.
For `CCOC12c3c4cccc3C(=O)c3cccc(c31)C(=O)c1cccc(c12)C4=O`, the T/C [4] was 103 % of control, the T/C [5] was 105 % of control and the T/C (dose: 200.0 mg/kg/injection, schedule: Q01DX009 (ip), vehicle: saline with Tween-80) was 111 % of control. The T/C [6] was 93 % of control, the T/C (dose: 400.0 mg/kg/injection, schedule: Q01DX009 (ip), vehicle: saline with Tween-80) was 109 % of control and the T/C [7] was 96 % of control.
In the case of `O=C(Nc1cccc(Cl)c1)OCC#CCCl`, the T/C (dose: 50.0 mg/kg/injection, schedule: Q01DX001 (ip), vehicle: saline sonified) is reported as 97 % of control.
`O=C(Nc1ccccc1C(F)(F)F)N(CCO)C1CCCCC1` was tested, and the T/C [8] was 100 % of control, the T/C [9] was 103 % of control and the T/C [10] was 101 % of control.
With `COc1ccc(C(=O)OCc2ccccc2CN(C)C)cc1` the T/C [11] was 105 % of control and the T/C [12] was 105 % of control.
With `O=C(OCCl)c1ccc(Cl)c(Cl)c1` the T/C (dose: 25.0 mg/kg/injection, schedule: Q04DX003 (ip), vehicle: Klucel (hydroxypropylcellulose) (HPC)) was 95 % of control, the T/C (dose: 50.0 mg/kg/injection, schedule: Q04DX003 (ip), vehicle: Klucel (hydroxypropylcellulose) (HPC)) was 98 % of control and the T/C [13] was 101 % of control.
`NC(=O)N/N=C/CSCc1ccccc1` was tested, and the T/C [5] was 102 % of control, the T/C [6] was 97 % of control and the T/C [7] was 92 % of control.
With `C=CCNC(=O)Nc1cccc(O)c1` the T/C [5] was 100 % of control, the T/C [6] was 96 % of control and the T/C [7] was 93 % of control.
For `O=[N+]([O-])c1ccc(-c2cnc(Nc3ccc(Cc4ccc(Nc5ncc(-c6ccc([N+](=O)[O-])cc6)s5)c(Cl)c4)cc3Cl)s2)cc1`, the T/C [13] was 98 % of control, the T/C [14] was 106 % of control and the T/C [15] was 98 % of control.
`O=C(Nc1ccc(Br)cc1)Oc1ccc(Nc2ccccc2)cc1` was tested, and the T/C [8] was 98 % of control, the T/C [9] was 89 % of control and the T/C [10] was 98 % of control.
In the case of `CC(=O)OCCn1c2ccccc2c2c(C)c3cnccc3c(C)c21`, the T/C (dose: 37.5 mg/kg/injection, schedule: Q04DX003 (ip), vehicle: saline) is reported as 115 % of control, the T/C (dose: 150.0 mg/kg/injection, schedule: Q04DX003 (ip), vehicle: saline) is reported as 154 % of control and the T/C [6] is reported as 108 % of control. The T/C (dose: 300.0 mg/kg/injection, schedule: Q04DX003 (ip), vehicle: saline with Tween-80) was 102 % of control and the T/C (dose: 300.0 mg/kg/injection, schedule: Q04DX003 (ip), vehicle: saline) was 290 % of control.
With `CCCCc1cc(O)c2c(c1O)C(=O)c1ccccc1C2=O` the T/C (dose: 100.0 mg/kg/injection, schedule: Q01DX001 (ip), vehicle: saline sonified) was 91 % of control, the T/C (dose: 100.0 mg/kg/injection, schedule: Q01DX009 (ip), vehicle: saline sonified) was 97 % of control and the T/C (dose: 200.0 mg/kg/injection, schedule: Q01DX001 (ip), vehicle: saline sonified) was 86 % of control. The T/C (dose: 200.0 mg/kg/injection, schedule: Q01DX009 (ip), vehicle: saline sonified) was 102 % of control, the T/C (dose: 400.0 mg/kg/injection, schedule: Q01DX001 (ip), vehicle: saline sonified) was 94 % of control and the T/C (dose: 400.0 mg/kg/injection, schedule: Q01DX009 (ip), vehicle: saline sonified) was 96 % of control.
`O=C(CNC(=O)c1ccccc1)N/N=C/c1ccncc1` was tested, and the T/C (dose: 25.0 mg/kg/injection, schedule: Q01DX009 (ip), vehicle: saline with Tween-80) was 91 % of control, the T/C (dose: 50.0 mg/kg/injection, schedule: Q01DX009 (ip), vehicle: saline with Tween-80) was 93 % of control and the T/C [4] was 86 % of control.
`O=C(O)C1CCC(CC23CC4CC(CC(C4)C2)C3)CC1` (configuration not stated) was tested, and the T/C [8] was 108 % of control, the T/C [13] was 103 % of control and the T/C [9] was 103 % of control. The T/C [14] was 105 % of control, the T/C [10] was 109 % of control and the T/C [15] was 101 % of control.
`Nc1nc(N)c2nc(CO)cnc2n1` was tested, and the T/C (dose: 12.5 mg/kg/injection, schedule: Q01DX009 (ip), vehicle: Klucel (hydroxypropylcellulose) (HPC)) was 98 % of control, the T/C (dose: 25.0 mg/kg/injection, schedule: Q01DX009 (ip), vehicle: Klucel (hydroxypropylcellulose) (HPC)) was 102 % of control and the T/C (dose: 50.0 mg/kg/injection, schedule: Q01DX009 (ip), vehicle: Klucel (hydroxypropylcellulose) (HPC)) was 101 % of control and 105 % of control. For the same compound, the T/C [8] was 101 % of control.
In the case of `Nc1cc(OCc2ccccc2)ncn1`, the T/C (dose: 25.0 mg/kg/injection, schedule: Q01DX001 (ip), vehicle: Klucel (hydroxypropylcellulose) (HPC)) is reported as 103 % of control, the T/C (dose: 50.0 mg/kg/injection, schedule: Q01DX001 (ip), vehicle: Klucel (hydroxypropylcellulose) (HPC)) is reported as 109 % of control and the T/C (dose: 100.0 mg/kg/injection, schedule: Q01DX001 (ip), vehicle: Klucel (hydroxypropylcellulose) (HPC)) is reported as 97 % of control.
In the case of `CC(CCN=Cc1ccccc1O)N=Cc1ccccc1O` (configuration not stated), the T/C (dose: 50.0 mg/kg/injection, schedule: Q01DX001 (ip), vehicle: other) is reported as 107 % of control, the T/C (dose: 100.0 mg/kg/injection, schedule: Q01DX001 (ip), vehicle: other) is reported as 89 % of control and the T/C (dose: 200.0 mg/kg/injection, schedule: Q01DX001 (ip), vehicle: other) is reported as 97 % of control. For the same compound, the T/C (dose: 400.0 mg/kg/injection, schedule: Q01DX001 (ip), vehicle: other) was 95 % of control.
`CC(C)(C)C1CC(Cl)C(=O)C(Cl)C1` (configuration not stated) was tested, and the T/C [16] was 104 % of control, the T/C (dose: 100.0 mg/kg/injection, schedule: Q04DX003 (ip), vehicle: saline) was 96 % of control and the T/C (dose: 200.0 mg/kg/injection, schedule: Q01DX001 (ip), vehicle: saline) was 94 % of control. For the same compound, the T/C (dose: 200.0 mg/kg/injection, schedule: Q04DX003 (ip), vehicle: saline) was 112 % of control, the T/C (dose: 400.0 mg/kg/injection, schedule: Q01DX001 (ip), vehicle: saline) was 88 % of control and the T/C (dose: 400.0 mg/kg/injection, schedule: Q04DX003 (ip), vehicle: saline) was 94 % of control.
In the case of `C=CC[P+](Cc1ccccc1)(c1ccccc1)c1ccccc1`, the T/C (dose: 3.13 mg/kg/injection, schedule: Q01DX009 (ip), vehicle: saline with Tween-80) is reported as 98 % of control, the T/C (dose: 6.25 mg/kg/injection, schedule: Q01DX009 (ip), vehicle: saline with Tween-80) is reported as 107 % of control and the T/C (dose: 12.5 mg/kg/injection, schedule: Q01DX009 (ip), vehicle: saline with Tween-80) is reported as 104 % of control and 115 % of control.
`CC(=O)Oc1ccc(OC(C)=O)c2c1C(=O)C=CC2=O` was tested, and the T/C (dose: 0.78 mg/kg/injection, schedule: Q04DX002 (ip), vehicle: alcohol) was 110 % of control, the T/C (dose: 1.56 mg/kg/injection, schedule: Q04DX002 (ip), vehicle: alcohol) was 100 % of control and the T/C (dose: 3.12 mg/kg/injection, schedule: Q04DX002 (ip), vehicle: alcohol) was 106 % of control. The T/C (dose: 6.25 mg/kg/injection, schedule: Q04DX002 (ip), vehicle: alcohol) was 93 % of control and the T/C [16] was 107 % of control.
For `NS(=O)(=O)c1ccc(NC2OCC(O)C(O)C2O)cc1` (configuration not stated), the T/C [5] was 98 % of control, the T/C [6] was 100 % of control and the T/C [7] was 102 % of control.
With `Cc1cc2cccc[n+]2cc1C` the T/C (dose: 12.5 mg/kg/injection, schedule: Q01DX009 (ip), vehicle: saline) was 95 % of control and the T/C (dose: 25.0 mg/kg/injection, schedule: Q01DX009 (ip), vehicle: saline) was 98 % of control.
With `CCOCCOCCOC(C)Oc1cccc(OC)c1` (configuration not stated) the T/C [11] was 107 % of control, the T/C [12] was 101 % of control and the T/C (dose: 400.0 mg/kg/injection, schedule: Q04DX002 (ip), vehicle: saline) was 96 % of control.
With `[N-]=[N+]=NC1=C(Cl)C(=O)c2ccccc2C1=O` the T/C [1] was 101 % of control, the T/C [2] was 96 % of control and the T/C [3] was 96 % of control.
With `Cc1cc2c(cc1C)=NC(=Nc1nc(O)c(O)[nH]1)N=2` the T/C [13] was 98 % of control, the T/C [14] was 96 % of control and the T/C [15] was 91 % of control.
